Measurements as given in patent US7767204B2, “Method and composition for protecting neuronal tissue from damage induced by elevated glutamate levels” (Yeda Research And Development Co. Ltd., priority 2002, dated 2010).

Key:
[1] = system: brain to blood glutamate efflux; assay: Brain-to-blood [3H]Glu efflux after intracerebroventricular injection; settings: first 10 minutes after injection in lateral ventricle, n=8
Method: Catheterization of the tail vein (for drug injections) and of the femoral vein (for blood aliquot withdrawals) was performed using PE10 polyethylene tubing linked to PE50 polyethylene tubing. […] A 27G steel cannula was implanted in the right lateral ventricle using the following stereotactic coordinates: 0.8 mm posterior to bregma; lateral 1.4 mm; depth: 4 mm from skull or 3.5 mm from dura. A [^3H] glutamate solution in phosphate buffered saline (PBS) was injected into the lateral ventricle through the implanted cannula using a Hamilton syringe (25 μl) connected to PE20 tube filled with solution. A total volume of 11 μl was injected within approximately 2 minutes.
For radioactivity determination, 50 μl blood samples were diluted in 500 μl H2O and added to 16 ml of scintillation fluid. Measured cpms were corrected for quenching as determined by comparing the measured cpms of a set volume of [^3H] glutamate added to water or to diluted blood. Body temperature was maintained with a lamp and rectal temperature was monitored. Rat pulse rate was monitored using a Periflux system 500 and a laser Doppler probe placed onto the skull.
Intravenous injections of pyruvate and oxaloacetate diluted in phosphate buffered saline (PBS) were carried out at a rate of 0.05 ml/minute for 30 minutes with a Pharmacia pump P-1.

[2] = Glutamate life time in blood after bolus intravenous injection of labelled glutamate; format: in vivo, rat
Method: Results—Glutamate normalization may be accomplished by estimating the rate of disappearance of [^14C] glutamate from the blood, by methodology detailed in the preceding example. Administration of a bolus intravenous injections of 11 μCi radio-labeled glutamate in the absence or presence of non-radioactive glutamate was conducted and the presence of radioactivity in blood was monitored over time (FIG. 19).

[3] = system: rat blood plasma glutamate (GOT, GPT); assay: Glutamate conversion in rat blood plasma by pyruvate and oxaloacetate analogues; format: biochemical; settings: for % of remaining Glutamate: rat blood plasma, 1 mM of each co-substrate
Method: A number of glutamate modifying enzymes were tested for their ability to enhance glutamate conversion in rat blood plasma. Table 1 below summarizes the results obtained with 1 mM of each co-substrate.

[4] = Blood concentrations of pyruvate and oxaloacetate during intravenous infusion; format: in vivo, rat; settings: intravenous 50 μMoles/min each for 30 min
Method: Glutamate analyses of in-vivo treated blood samples were carried out according to the fluorometric procedure of Graham and Aprison [(1996) Anal. Biochem. 15(3):487-97]. Pyruvate concentration determination—Blood Pyruvate concentration was measured using the Sigma Diagnostics Pyruvate reagents according to manufacturer's instructions. In brief: the procedure utilizes lactate dehydrogenase which in the presence of excess NADH catalyzes almost complete conversion of pyruvate into lactate with a concomitant production of NAD. The reduction of absorbance at 340 nm due to the oxidation of NADH into NAD is the measure of the amount of pyruvate originally present.
(§1) Oxaloacetate concentration determination—Blood oxaloacetate concentration was measured using the same procedure as for pyruvate but using malate dehydrogenase which catalyses the conversion of oxaloacetate into malate along with the oxidation of NADH into NAD.
Results—The effect on glutamate levels via pyruvate and oxaloacetate administration through an intravenous catheter at a rate of 50 μMoles/minute for a duration of 30 minutes was determined. Blood concentrations of glutamate, pyruvate and oxaloacetate were monitored in parallel. […] However, as soon as the administration of pyruvate and oxaloacetate was stopped, their blood concentration decreased and the glutamate level increased concomitantly.

[5] = system: glutamate in blood cells and plasma (GPT, GOT, 2-ketoglutarate dehydrogenase, GDH); assay: In-vitro glutamate levels and conversion in blood cell fraction and plasma; format: biochemical, rat; settings: for blood cell (cellular) glutamate levels / plasma glutamate levels: incubation of blood with GDH co-factors in vitro
Method: (§2) Induction of rat blood glutamate metabolism and glutamate concentration determination—Fresh rat blood samples incubated at 37° C. were supplemented every 15 minutes or as noted with oxaloacetate and/or pyruvate (final concentration of 1 mM at pH 7.4).
(§3) At indicated time intervals, 150 μl aliquots were removed and centrifuged at 1,300×g for 7 minutes. Plasma volume (i.e., supernatant) was measured and was combined with identical volume of perchloric acid (PCA) to precipitate protein content. Precipitation was allowed to proceed for 10 minutes on ice and thereafter samples were centrifuged. Cell pellet (i.e., erythrocytes, lymphocytes and platelets) was lysed by osmotic shock following resuspension in double distilled water up to a final volume of 150 μl. A second step of protein precipitation was then performed by adding 150 μl of PCA [[…]]. Plasma and cell PCA-precipitated fractions were centrifuged at 16,000×g for 10 minutes and pellets were discarded.
Supernatant glutamate concentration was determined according to the fluorometric procedure of Graham and Aprison [(1996) Anal. Biochem. 15(3):487-97]. In brief: 20 μl aliquot of PCA precipitated fraction was added to 480 μl HG buffer containing 15 u of glutamate dehydrogenase in 0.2 mM NAD, 0.3 M glycine, 2.4% hydrazine hydrate adjusted to pH 6.8 with H2SO4 [1 N] and incubated at room temperature for 30-45 minutes. Fluorescence was measured at 460 nm following excitation at 350 nm. All measurements were performed alongside a glutamate standard curve at a glutamate concentration range of 0-6 μM. All glutamate measurements were performed in duplicates.
Results—Glutamate levels were therefore determined individually in blood cell fractions (closed symbols) and in plasma (open symbols), following repeated additions (arrows) of 1 mM pyruvate (squares), 1 mM oxaloacetate (triangles) or of a mixture of 1 mM pyruvate and 1 mM oxaloacetate (diamonds) (FIG. 2A). Glutamate determination was conducted as described in Example 1.

[6] = system: blood and plasma glutamate (GOT); assay: Effect of diethyloxaloacetate on glutamate in rat blood and plasma in vitro; format: biochemical; settings: 10 mM
Method: Thereafter, the effect of diethyloxaloacetate on Glutamate levels was assessed. Glutamate levels were determined in rat blood samples upon incubation in the absence or presence of 10 mM diethyloxaloacetate. […] FIG. 31 represents the amount of plasma glutamate converted probably into α-ketoglutarate following the activation of GOT as a function of time by the presence of 10 mM diethyloxaloacetate.

[7] = Conversion of diethyloxaloacetate into oxaloacetate in rat blood and tissue homogenates; format: in vitro ADME; settings: 10 mM diethyloxaloacetate
Method: as §1
The use of an oxaloacetate prodrug, which following in vivo administration, is converted to oxaloacetate, may obviate this problem. Thus the commercially available oxaloacetate diethylester (FIG. 27B) was considered in this context. Conversion of oxaloacetate diethylester into oxaloacetate following incubation with tissue homogenates derived from rat liver, colon, ileum, jejunum and duodenum was investigated.

[8] = target: T1, glutamate, 2-ketoglutarate (Escherichia coli, UniProt P00509); settings: cited from earlier work
T1 sequence (P00509 whole entry, looked up): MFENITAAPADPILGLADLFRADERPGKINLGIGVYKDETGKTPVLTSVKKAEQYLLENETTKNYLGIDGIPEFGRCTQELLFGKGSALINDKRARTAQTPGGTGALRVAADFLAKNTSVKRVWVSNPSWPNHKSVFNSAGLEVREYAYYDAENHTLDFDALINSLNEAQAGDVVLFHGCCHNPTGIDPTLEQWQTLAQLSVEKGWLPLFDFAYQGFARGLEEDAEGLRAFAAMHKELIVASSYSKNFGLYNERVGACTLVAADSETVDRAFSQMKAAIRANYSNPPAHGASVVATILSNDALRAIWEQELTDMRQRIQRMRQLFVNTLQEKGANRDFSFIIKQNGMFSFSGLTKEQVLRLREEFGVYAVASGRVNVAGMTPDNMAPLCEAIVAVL

[9] = system: blood glutamate (blood resident GPT and GOT); assay: In-vitro scavenging of glutamate in whole rat blood by activation of resident enzymes; format: biochemical; settings: 37° C., 1 mM co-substrate and/or 2.5 u/ml GPT
Method: as §2, §3
Supernatant glutamate concentration was determined according to the fluorometric procedure of Graham and Aprison [(1996) Anal. Biochem. 15(3):487-97]. […] Fluorescence was measured at 460 nm following excitation at 350 nm. […]

[10] = normal blood glutamate concentration of 209 μM
[11] = rat blood in vitro, 24 hours, 37° C.

## N[C@@H](CCC(=O)O)C(=O)O [[^3H] glutamate, glutamate]
[1]
  rate of appearance of radioactivity in blood, of the amount input in the brain per minute: 0.8%±0.1
[2]; blood glutamate 3.4 mM
  glutamate eliminated per minute: 69 nmoles glutamate/ml blood
[2]; blood glutamate 3.4 mM after intraperitoneal 2 mMoles of glutamate
  elimination half-life in blood: 24.6 min
[2]; normal blood glutamate concentration
  elimination rate constant: 0.035 min⁻¹
[2]; [10]
  elimination half-life in blood: 19.3 min
  glutamate eliminated per minute: 5.4 nmoles of glutamate/ml blood

## α-Isocaproate
[3]
  % of remaining Glutamate: 83%

## O=C(O)C(=O)CO [β-Hydroxypyruvate]
[3]
  % of remaining Glutamate: 74%

## CCC(=O)C(=O)O [α-Ketobutyrate]
[3]; 0.5 mM, rat plasma
  decrease in plasma glutamate levels: no effect
[3]; 2 mM, rat plasma
  glutamate degradation as compared to basal glutamate levels: 40%
[3]; in the presence of 0.25 mM oxaloacetate
  conversion of glutamate in the presence of oxaloacetate: enhanced conversion of glutamate
[3]
  % of remaining Glutamate: 97%

## O=C(O)CC(=O)C(=O)O [Oxaloacetate]
[4]
  blood concentration built up: 450 µM

## Cc1ncc(COP(=O)(O)O)c(C=O)c1O [pyridoxal phosphate]
[5]; 15 μM pyridoxal phosphate
  enhancement of pyruvate and oxaloacetate-mediated decrease in cellular or plasma glutamate: No significant effects

## O=C(O)C(=O)Cc1ccccc1 [β-Phenylpyruvate]
[3]
  % of remaining Glutamate: 76%

## O=CCCC(=O)O [Succinic semialdehyde]
[3]
  % of remaining Glutamate: 78%

## Nc1ncnc2c1ncn2[C@@H]1O[C@H](COP(=O)(O)OP(=O)(O)O)[C@@H](O)[C@H]1O [ADP]
[5]
  blood cell (cellular) glutamate levels: did not significantly alter glutamate levels
  plasma glutamate levels: increased plasma glutamate levels

## NC(=O)c1ccc[n+]([C@@H]2O[C@H](COP(=O)([O-])OP(=O)(O)OC[C@H]3O[C@@H](n4cnc5c(N)ncnc54)[C@H](O)[C@@H]3O)[C@@H](O)[C@H]2O)c1 [NAD]
[5]
  blood cell (cellular) glutamate levels: decrease in blood cell glutamate levels
  plasma glutamate levels: increase in plasma glutamate levels

## CC(=O)C(=O)O [Pyruvate]
[4]
  blood concentration built up: 450 µM

## CC(C)C[C@H](N)C(=O)O [Leucine]
[5]
  blood cell (cellular) glutamate levels: did not significantly alter glutamate levels
  plasma glutamate levels: increased plasma glutamate levels

## CCOC(=O)CC(=O)C(=O)OCC [diethyloxaloacetate]
[6]; [11]
  glutamate blood levels: did not affect glutamate blood levels
[6]; rat blood plasma in vitro, following 9 hours incubation
  plasma glutamate: significant increase in plasma glutamate
[7]; liver and sections of rat gut mucosa, within 15 minutes
  increase in basal oxaloacetate levels: 400%
[7]; [11]
  increase of blood oxaloacetate: 240%

## O=CC(=O)O [Glyoxalate]
[3]
  % of remaining Glutamate: 74%

B1: E. coli GOT: E. coli glutamate oxaloacetate transaminase, GenBank Accession No. D90731.1 (protein, UniProt P00509 1-396, looked up)
Aspartate aminotransferase: T1 sequence (P00509 whole entry, looked up)
[8]
  affinity for 2-ketoglutarate: about 0.2 mM
  affinity for glutamate: about 8 mM

B2: GPT: glutamate pyruvate transaminase enzyme added at 2.5 u/ml (protein, UniProt P24298 2-496, looked up)
Alanine aminotransferase 1: ASSTGDRSQAVRHGLRAKVLTLDGMNPRVRRVEYAVRGPIVQRALELEQELRQGVKKPFTEVIRANIGDAQAMGQRPITFLRQVLALCVNPDLLSSPNFPDDAKKRAERILQACGGHSLGAYSVSSGIQLIREDVARYIERRDGGIPADPNNVFLSTGASDAIVTVLKLLVAGEGHTRTGVLIPIPQYPLYSATLAELGAVQVDYYLDEERAWALDVAELHRALGQARDHCRPRALCVINPGNPTGQVQTRECIEAVIRFAFEERLFLLADEVYQDNVYAAGSQFHSFKKVLMEMGPPYAGQQELASFHSTSKGYMGECGFRGGYVEVVNMDAAVQQQMLKLMSVRLCPPVPGQALLDLVVSPPAPTDPSFAQFQAEKQAVLAELAAKAKLTEQVFNEAPGISCNPVQGAMYSFPRVQLPPRAVERAQELGLAPDMFFCLRLLEETGICVVPGSGFGQREGTYHFRMTILPPLEKLRLLLEKLSRFHAKFTLEYS
[9]
  blood glutamate levels: significant increase in blood glutamate
